Consider 34 molecules from US5688787A, “Substituted β-lactam compounds useful as hypochlesterolemic agents and processes for the preparation thereof” (priority 1996, dated 1997).

The subject of this experiment is Hyperlipidemic Hamster. Description: In Vivo Assay of Hypolipidemic Agents Using the Hyperlipidemic Hamster. The following applies: 7 days, percent change versus control, negative = lowering; for change in vivo at 50 mg/kg / change in vivo at 3 mg/kg / change in vivo at 10 mg/kg / change in vivo at 1 mg/kg: Mesocricetus auratus, po, 168 h; for change in vivo at 3 mg/kg: 3 mg/kg once daily oral; for change in vivo at 10 mg/kg: 10 mg/kg once daily oral; for change in vivo at 1 mg/kg: 1 mg/kg once daily oral. On the procedure:
In Vivo Assay of Hypolipidemic Agents Using the Hyperlipidemic Hamster
Hamsters are separated into groups of six and given a controlled cholesterol diet (Purina Chow #5001 containing 0.5% cholesterol) for seven days. Diet consumption is monitored to determine dietary cholesterol exposure in the face of test compounds. The animals are dosed with the test compound once daily beginning with the initiation of diet. Dosing is by oral gavage of 0.2mL of corn oil alone (control group) or solution (or suspension) of test compound in corn oil. All animals roodbund or in poor physical condition are euthanized. After seven days, the animals are anesthetized by IM injection of ketamine and sacrificed by decapitation. Blood is collected into vacutainer tubes containing EDTA for plasma lipid analysis and the liver excised for tissue lipid analysis. Data is reported as percent reduction of lipid versus control.
Using the test procedures described above, the following in vitro and in vivo data were obtained for the preferred compounds, which are referred to in the following table by the corresponding example numbers. For the in vitro ACAT data, negative percent inhibition denotes apparent stimulation,while positive numbers denote inhibition. For the in vivo results, data is reported as percent change versus control, therefore, negative numbers indicate a positive lipid-lowering effect.

[1] abbreviates: 50 mg/kg once daily oral, read-out: % Reduction (in vivo) Cholest. Esters.
The mark [2] stands for this setting: 50 mg/kg once daily oral, read-out: % Reduction (in vivo) Serum Cholest.
Setting [3] is: read-out: % Reduction (in vivo) Cholest. Esters.
Setting [4] is: read-out: % Reduction (in vivo) Serum Cholest.

SMILES strings stand for the structures. Where two headings read alike, the source gives them in different places.

For the molecule `COc1ccc([C@@H]2[C@@H](CCCc3ccccc3)C(=O)N2c2ccc(C#N)cc2)cc1` (relative stereo) [Example 7D], the change in vivo at 50 mg/kg by setting is: under setting [1], -74%; under setting [2], -35%.
With `CON=Cc1ccc([C@H]2[C@@H](CCCc3ccccc3)C(=O)N2c2ccc(OC)cc2)cc1` (relative stereo) [Example 27], the change in vivo at 50 mg/kg runs as follows: under setting [1], -36%; under setting [2], -12%.
For the molecule `CCOC(=O)COc1ccc([C@H]2[C@@H](CCCc3ccccc3)C(=O)N2c2ccc(OC)cc2)cc1` (relative stereo) [Example 35A], the change in vivo at 50 mg/kg reads like this: under setting [1], -84%; under setting [2], -34%.
Regarding `COc1ccc(N2C(=O)[C@H](CCCc3ccccc3)[C@@H]2c2ccc(C(=O)O)cc2)cc1` (relative stereo) [Example 22A], the change in vivo at 50 mg/kg was -22% under setting [1] and -16% under setting [2].
The corresponding values for `COc1ccc([C@@H]2[C@H](NCCCC3CCCCC3)C(=O)N2c2ccccc2)cc1` (relative stereo) [Example 14C] are 0% and 0%.
For `CCOc1ccc(N2C(=O)[C@H](CCCc3ccccc3)[C@H]2c2ccc(OC)cc2)cc1` (relative stereo) [Example 5H], the change in vivo at 50 mg/kg is, setting by setting: under setting [1], -96%; under setting [2], -57%.
`CCOC(=O)c1ccc([C@H]2[C@@H](CCCc3ccccc3)C(=O)N2c2ccc(OC)cc2)cc1` (relative stereo) [Example 24]: the change in vivo at 50 mg/kg is 0% under setting [1] and -17% under setting [2].
In the case of `COc1ccc(N2C(=O)[C@H](CCCc3ccccc3)[C@@H]2c2ccc(S(N)(=O)=O)cc2)cc1` (relative stereo) [Example 29], the change in vivo at 50 mg/kg reads like this: under setting [1], -24%; under setting [2], -22%.
The like results for `COCOc1ccc([C@@H]2[C@@H](CCCc3ccccc3)C(=O)N2c2ccccc2)cc1` (relative stereo) [Example 7T] were, in that order, -93% and -49%.
The like results for `COc1ccc([C@@H]2[C@@H](CCCc3ccccc3)C(=O)N2c2ccc3c(c2)CCC3)cc1` (relative stereo) [Example 7AR] were, in that order, -88% and -32%.
The corresponding values for `COc1ccc(N2C(=O)[C@H](CCCc3ccccc3)[C@H]2c2ccc(OC)cc2OC)cc1` (relative stereo) [Example 7X] are -78% and -26%.
As for `COc1ccc([C@@H]2[C@@H](OCCc3ccccc3)C(=O)N2c2ccc(OC)cc2)cc1` (relative stereo) [Example 5Z], the change in vivo at 50 mg/kg under setting [1] stood at 0% and the change in vivo at 50 mg/kg under setting [2] is -16%.
For `COc1ccc(N2C(=O)[C@H](CCCc3ccccc3)[C@@H]2c2ccc(OC)c(C)c2)cc1` (relative stereo) [Example 1BA], the change in vivo at 50 mg/kg reads like this: under setting [1], 0%; under setting [2], 0%.
As to `COc1ccc([C@@H]2[C@H](NC(=O)Cc3ccccc3)C(=O)N2c2ccccc2)cc1` (relative stereo) [Example 12], the change in vivo at 50 mg/kg runs as follows: under setting [1], 0%; under setting [2], -12%.
The corresponding values for `COc1ccc([C@@H]2[C@@H](CCCCCc3ccccc3)C(=O)N2c2ccc(OC)cc2)cc1` (relative stereo) [Example 7AM] are -70% and -24%.
Turning to `COc1ccc([C@H]2[C@@H](CCOc3ccc(F)cc3)C(=O)N2c2ccccc2)cc1` (relative stereo) [Example 1CH], the change in vivo at 3 mg/kg was -80% under setting [3] and -24% under setting [4]. In addition, the change in vivo at 10 mg/kg reads like this: under setting [3], -90%; under setting [4], -41%. Also, the change in vivo at 50 mg/kg under setting [1] is -95% and the change in vivo at 50 mg/kg under setting [2] is -49%.
As for `COCc1ccc([C@@H]2[C@@H](CCCc3ccccc3)C(=O)N2c2ccc(OC)cc2)cc1` (relative stereo) [Example 21], the change in vivo at 50 mg/kg reads like this: under setting [1], -56%; under setting [2], -27%.
Turning to `COc1ccc([C@@H]2[C@H](N(C)CCc3ccccc3)C(=O)N2c2ccccc2)cc1` (relative stereo) [Example 7K], the change in vivo at 50 mg/kg was -32% under setting [1] and 0% under setting [2].
On to `COc1ccc([C@@H]2[C@H](NC(=O)OCc3ccccc3)C(=O)N2c2ccccc2)cc1` (relative stereo) [Example 12C], for which the change in vivo at 50 mg/kg was found to be 0% under setting [1] and 0% under setting [2].
On to `COc1ccc(CN[C@@H]2C(=O)N(c3ccccc3)[C@@H]2c2ccc(OC)cc2)cc1` (relative stereo) [Example 14A], for which the change in vivo at 50 mg/kg is, setting by setting: under setting [1], -78%; under setting [2], 31%.
For `CCCOc1ccc([C@H]2[C@@H](CCCc3ccccc3)C(=O)N2c2ccc(OC)cc2)cc1` (relative stereo) [Example 1AZ], the change in vivo at 50 mg/kg runs as follows: under setting [1], -91%; under setting [2], -37%.
The like results for `COc1ccc([C@@H]2[C@@H](CCCc3ccc(N=[N+]=[N-])cc3)C(=O)N2c2ccc(OC)cc2)cc1` (relative stereo) [Example 33] were, in that order, 0% and 0%.
Consider `COc1ccc([C@@H]2[C@@H](/C=C\Cc3ccccc3)C(=O)N2c2ccc(OC)cc2)cc1` (relative stereo) [Example 7AI], for which the change in vivo at 3 mg/kg under setting [3] is -46% and the change in vivo at 3 mg/kg under setting [4] is -11%. For the same molecule, the change in vivo at 10 mg/kg is, setting by setting: under setting [3], -73%; under setting [4], -20%. Also, the change in vivo at 50 mg/kg by setting is: under setting [1], -95%; under setting [2], -63%.
With `COc1ccc(C2C(CCCc3ccccc3)C(=O)N2c2ccc(Oc3ccccc3)cc2)cc1` (stereo not drawn) [Example 5K], the change in vivo at 50 mg/kg is, setting by setting: under setting [1], -49%; under setting [2], -28%.
The corresponding values for `COc1ccc(N2C(=O)[C@@H](CCCc3ccccc3)[C@@H]2c2ccc(SC)cc2)cc1` (relative stereo) [Example 1CM] are 0% and 0%.
`COc1ccc([C@@H]2[C@@H](CCCc3ccccc3)C(=O)N2c2ccccc2)cc1` [Example 5L]: under setting [3], the change in vivo at 1 mg/kg was -64%, the change in vivo at 3 mg/kg was -84% and the change in vivo at 10 mg/kg is -95%. Moreover, under setting [4], the change in vivo at 1 mg/kg was -54%, the change in vivo at 3 mg/kg is -39% and the change in vivo at 10 mg/kg was -50%.
In the case of `COc1ccc(N2C(=O)[C@H](CCCc3ccccc3)[C@H]2c2cc(I)c(O)c(I)c2)cc1` (relative stereo) [Example 32A], the change in vivo at 50 mg/kg runs as follows: under setting [1], 0%; under setting [2], 0%.
On to `COc1ccc([C@@H]2[C@@H](CCOc3ccc([N+](=O)[O-])cc3)C(=O)N2c2ccccc2)cc1` (relative stereo) [Example 7AN], for which the change in vivo at 50 mg/kg reads like this: under setting [1], -42%; under setting [2], -12%.
The corresponding values for `COc1ccc(N2C(=O)[C@H](CCCc3ccccc3)[C@@H]2c2ccc(NS(C)(=O)=O)cc2)cc1` (relative stereo) [Example 25] are -34% and -8%.
Regarding `COCc1ccc([C@H]2[C@@H](CCCc3ccccc3)C(=O)N2c2ccc(OC)cc2)cc1` (relative stereo) [Example 21A], the change in vivo at 50 mg/kg under setting [1] is -25% and the change in vivo at 50 mg/kg under setting [2] worked out at 0%.
As for `COc1ccc([C@@H]2[C@@H](CCCc3ccccc3)C(=O)N2c2cnc3ccccc3c2)cc1` (relative stereo) [Example 7AT], the change in vivo at 50 mg/kg by setting is: under setting [1], -32%; under setting [2], -10%.
On to `COc1ccc(N2C(=O)C(CCCc3ccccc3)C2c2ccc(C3OCCO3)cc2)cc1` (stereo not drawn) [Example 31A], for which, where the note is “50 mg/kg once daily oral”, the “% Reduction (in vivo) Cholest. Esters” value was found to be 0% and the “% Reduction (in vivo) Serum Cholest.” value is 0%.
As to `CCOc1ccc([C@@H]2[C@@H](CCCc3ccccc3)C(=O)N2c2ccccc2)cc1` (relative stereo) [Example 7Y], the change in vivo at 3 mg/kg was -55% under setting [3] and -22% under setting [4]. The change in vivo at 10 mg/kg is, setting by setting: under setting [3], -79%; under setting [4], -27%. The change in vivo at 50 mg/kg under setting [1] is -94% and the change in vivo at 50 mg/kg under setting [2] was -53%.
Take `COc1ccc(N2C(=O)[C@H](CCCc3ccccc3)[C@H]2c2ccc(CN3CCN(C)CC3)cc2)cc1` (relative stereo) [Example 19C]: the change in vivo at 50 mg/kg runs as follows: under setting [1], -46%; under setting [2], -9%.
